Values after ≈ are worked out from the molar mass of the structure shown. Read-outs that look alike come from different tables or passages of the source.
Assays:
Test in all cases: MIC, broth micro-dilution technique (CLSI)
MRSA COL (NRS100) = type: cell-based, Staphylococcus aureus; details: Staphylococcus aureus, 22 h, read-out: MIC (μg/mL) (COL)
How it was run: (§1)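 Cation-adjusted MHB + 0.002% Tween-80; 10-point 2-fold series starting 64 μg/ml (modified protocol: 4 μg/mL). Final inoculum OD600 0.0005; 35° C, 22 h. MIC per CLSI M07-A8 broth microdilution.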

[1] = test system: Escherichia coli MC4100 harboring the IMP4213; type: cell-based; details: Escherichia coli, 22 h, 35° C., 22 hours
How it was run: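 MICs determined after 35 °C, 22 h incubation of bacteria (final OD600 0.0005) with 10-point 2-fold compound series. Series topped at 64 μg/ml in the standard protocol or 4 μg/mL in the modified one. Medium: cation-adjusted Mueller Hinton broth plus 0.002% Tween-80. E. coli MC4100 imp4213 has a permeabilized outer membrane.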

[2] = test system: Methicillin Resistant Staphylococcus aureus strain USA 300 (NRS384); type: cell-based; details: Staphylococcus aureus, 22 h, read-out: MIC (μg/mL) S. aureus
How it was run: as §1

[3] = Table 1 protocol: serial 2-fold dilutions starting from 64 μg/ml, 35° C., 22 hours
[4] = read-out: MIC (μg/mL) E. coli, Table 1 protocol: serial 2-fold dilutions starting from 64 μg/ml
[5] = read-out: MIC (μg/mL) E. coli, Table 2 modified protocol: serial 2-fold dilutions starting from 4 μg/mL

Compound | MIC (MRSA COL (NRS100); [3]) [µg/mL] | MIC [1, 4] [µg/mL] | MIC [2, 3] [µg/mL] | MIC (MRSA COL (NRS100)) [µg/mL] | MIC [1, 5] [µg/mL] | MIC [2] [µg/mL]
C[C@@H]1NC(=O)[C@@H](N(C)C(=O)[C@H](CCCCN)NC(=O)c2ccc(-c3ccc(Cl)cc3)cc2)c2ccc(OCCN)c(c2)-c2cc(ccc2OCCN)C[C@@H](C(=O)N[C@@H](C)C(=O)N2CCC[C@H]2C(N)=O)NC1=O [Compound 277] | 0.25 (≈ 0.248 µM) | 2 (≈ 1.98 µM) | 0.75 (≈ 0.743 µM) | – | – | –
C[C@@H]1NC(=O)[C@@H](N(C)C(=O)[C@H](CCCCN)NC(=O)c2ccc(-c3ccc(C(C)(C)C)cc3)cc2)c2ccc(OCCN)c(c2)-c2cc(ccc2OCCN)C[C@@H](C(=O)O)NC1=O [Compound 278] | – | – | – | 0.094 (≈ 0.109 µM) | 0.031 (≈ 0.0359 µM) | 0.25 (≈ 0.289 µM)
C[C@@H]1NC(=O)[C@@H](N(C)C(=O)[C@H](CCCCN)NC(=O)c2ccc(-c3ccc(C(F)(F)F)cc3)cc2)c2ccc(OCCN)c(c2)-c2cc(ccc2OCCN)C[C@@H](C(=O)O)NC1=O [Compound 279] | – | – | – | 0.5 (≈ 0.571 µM) | 0.25 (≈ 0.285 µM) | 2 (≈ 2.28 µM)
C[C@@H]1NC(=O)[C@@H](N(C)C(=O)[C@H](CCCCN)NC(=O)c2ccc(-c3cc(Cl)cc(Cl)c3)cc2)c2ccc(OCCN)c(c2)-c2cc(ccc2OCCN)C[C@@H](C(=O)O)NC1=O [Compound 280] | – | – | – | 0.38 (≈ 0.433 µM) | 0.25 (≈ 0.285 µM) | 0.75 (≈ 0.855 µM)
C[C@@H]1NC(=O)[C@@H](N(C)C(=O)[C@H](CCCCN)NC(=O)c2ccc(/C=C/c3ccccc3)cc2)c2ccc(OCCN)c(c2)-c2cc(ccc2OCCN)C[C@@H](C(=O)O)NC1=O [Compound 281] | – | – | – | 1 (≈ 1.2 µM) | 0.25 (≈ 0.3 µM) | 3 (≈ 3.6 µM)
C[C@@H]1NC(=O)[C@@H](N(C)C(=O)[C@H](CCCCN)NC(=O)c2cccc(-c3ccc(Cl)cc3)c2)c2ccc(OCCN)c(c2)-c2cc(ccc2OCCN)C[C@@H](C(=O)O)NC1=O [Compound 282] | – | – | – | 2 (≈ 2.37 µM) | 1 (≈ 1.19 µM) | > 4
C[C@@H]1NC(=O)[C@@H](N(C)C(=O)[C@H](CCCCN)NC(=O)c2ccc(-c3ccccc3Cl)cc2)c2ccc(OCCN)c(c2)-c2cc(ccc2OCCN)C[C@@H](C(=O)O)NC1=O [Compound 283] | – | – | – | 1.5 (≈ 1.78 µM) | 1 (≈ 1.19 µM) | 4 (≈ 4.75 µM)
C[C@@H]1NC(=O)[C@@H](N(C)C(=O)[C@H](CCCCN)NC(=O)c2ccccc2-c2ccc(Cl)cc2)c2ccc(OCCN)c(c2)-c2cc(ccc2OCCN)C[C@@H](C(=O)O)NC1=O [Compound 284] | – | – | – | > 4 | > 4 | > 4
C[C@@H]1NC(=O)[C@@H](N(C)C(=O)[C@H](CCCCN)NC(=O)c2ccc(Oc3ccc(Cl)cc3)cc2)c2ccc(OCCN)c(c2)-c2cc(ccc2OCCN)C[C@@H](C(=O)O)NC1=O [Compound 285] | – | – | – | 0.5 (≈ 0.582 µM) | 0.25 (≈ 0.291 µM) | 2 (≈ 2.33 µM)
C[C@@H]1NC(=O)[C@@H](N(C)C(=O)[C@H](CCCCN)NC(=O)Cc2ccc(-c3ccc(Cl)cc3)cc2)c2ccc(OCCN)c(c2)-c2cc(ccc2OCCN)C[C@@H](C(=O)O)NC1=O [Compound 286] | – | – | – | 1.5 (≈ 1.75 µM) | 4 (≈ 4.67 µM) | 4 (≈ 4.67 µM)
C[C@@H]1NC(=O)[C@@H](N(C)C(=O)[C@H](CCCCN)NC(=O)c2ccc(-c3ccc(-c4ccccc4)cc3)cc2)c2ccc(OCCN)c(c2)-c2cc(ccc2OCCN)C[C@@H](C(=O)O)NC1=O [Compound 287] | – | – | – | 0.094 (≈ 0.106 µM) | 0.047 (≈ 0.0532 µM) | 0.25 (≈ 0.283 µM)
CCCCc1ccc(-c2cccc(C(=O)N[C@@H](CCCCN)C(=O)N(C)[C@@H]3C(=O)N[C@@H](C)C(=O)N[C@H](C(=O)O)Cc4ccc(OCCN)c(c4)-c4cc3ccc4OCCN)c2)cc1 [Compound 288] | – | – | – | 0.25 (≈ 0.289 µM) | 0.13 (≈ 0.15 µM) | 0.5 (≈ 0.579 µM)
C[C@@H]1NC(=O)[C@@H](N(C)C(=O)[C@H](CCCCN)NC(=O)c2ccc(-c3ccc(Cl)cc3)cc2)c2ccc(OCCN)c(c2)-c2cc(ccc2OCCN)C[C@@H](C(=O)O)NC1=O [Compound 289] | – | 0.5 (≈ 0.594 µM) | – | 0.5 (≈ 0.594 µM) | – | 2 (≈ 2.37 µM)
C[C@@H]1NC(=O)[C@@H](N(C)C(=O)[C@H](CCCCN)NC(=O)c2ccc(-c3ccc(Cl)cc3)cc2)c2cc(C#N)c(O)c(c2)-c2cc(ccc2O)C[C@@H](C(=O)O)NC1=O [Compound 290] | – | 32 (≈ 41 µM) | – | 32 (≈ 41 µM) | – | 64 (≈ 81.9 µM)
CCCCCCCCCCCCCC(=O)N(C)[C@@H]1C(=O)N[C@@H](C)C(=O)N[C@H](C(=O)O)Cc2ccc(OCCN)c(c2)-c2cc1ccc2OCCN [Compound 291] | – | 8 (≈ 11.3 µM) | – | 4 (≈ 5.63 µM) | – | 8 (≈ 11.3 µM)
CCCCCCCCCCCCCC(=O)N[C@@H](CCCCN)C(=O)N(C)[C@@H]1C(=O)N[C@@H](C)C(=O)N[C@H](C(=O)O)Cc2ccc(OCCN)c(c2)-c2cc1ccc2OCCN [Compound 293] | – | 0.063 (≈ 0.0752 µM) | – | 0.063 (≈ 0.0752 µM) | – | 0.063 (≈ 0.0752 µM)

Compound | MIC (MRSA COL (NRS100); [3]) [µg/mL] | MIC [1, 4] [µg/mL] | MIC [2, 3] [µg/mL] | MIC (MRSA COL (NRS100)) [µg/mL] | MIC [1, 5] [µg/mL] | MIC [2] [µg/mL]
CCCCc1ccc(-c2ccc(C(=O)N[C@@H](CCCCN)C(=O)N(C)[C@@H]3C(=O)N[C@@H](C)C(=O)N[C@H](C(=O)O)Cc4ccc(OCCN)c(c4)-c4cc3ccc4OCCN)cc2)cc1 [Compound 294] | – | 0.063 (≈ 0.0729 µM) | – | 0.063 (≈ 0.0729 µM) | – | 0.15 (≈ 0.174 µM)
CCCCc1ccc(-c2ccc(C(=O)N[C@@H](CCCN)C(=O)N(C)[C@@H]3C(=O)N[C@@H](C)C(=O)N[C@H](C(=O)O)Cc4ccc(OCCN)c(c4)-c4cc3ccc4OCCN)cc2)cc1 [Compound 295] | – | 0.063 (≈ 0.0741 µM) | – | 0.063 (≈ 0.0741 µM) | – | 0.19 (≈ 0.224 µM)
CCCCCCCCc1ccc(C(=O)N[C@@H](CCCN)C(=O)N(C)[C@@H]2C(=O)N[C@@H](C)C(=O)N[C@H](C(=O)O)Cc3ccc(OCCN)c(c3)-c3cc2ccc3OCCN)c(C)c1 [Compound 296] | – | 0.063 (≈ 0.0746 µM) | – | 0.063 (≈ 0.0746 µM) | – | 0.063 (≈ 0.0746 µM)
CCCCCCCCc1ccc(C(=O)N[C@@H](CCCN)C(=O)N(C)[C@@H]2C(=O)N[C@@H](C)C(=O)N[C@H](C(=O)O)Cc3ccc(OCCN)c(c3)-c3cc2ccc3OCCN)c(F)c1 [Compound 297] | – | 0.063 (≈ 0.0743 µM) | – | 0.063 (≈ 0.0743 µM) | – | 0.38 (≈ 0.448 µM)
CCCCCCCCCCCCCC(=O)N[C@@H](CN)C(=O)N(C)[C@@H]1C(=O)N[C@@H](C)C(=O)N[C@H](C(=O)O)Cc2ccc(OCCN)c(c2)-c2cc1ccc2OCCN [Compound 298] | – | – | – | 0.063 (≈ 0.0791 µM) | 0.031 (≈ 0.0389 µM) | 0.38 (≈ 0.477 µM)
CCCCCCCCc1ccc(C(=O)N[C@@H](CN)C(=O)N(C)[C@@H]2C(=O)N[C@@H](C)C(=O)N[C@H](C(=O)O)Cc3ccc(OCCN)c(c3)-c3cc2ccc3OCCN)cc1 [Compound 300] | – | – | – | 0.13 (≈ 0.162 µM) | 0.023 (≈ 0.0287 µM) | 0.5 (≈ 0.623 µM)
CCCCCCCCc1ccc(C(=O)N[C@@H](CCN)C(=O)N(C)[C@@H]2C(=O)N[C@@H](C)C(=O)N[C@H](C(=O)O)Cc3ccc(OCCN)c(c3)-c3cc2ccc3OCCN)c(C)c1 [Compound 302] | – | – | – | 0.039 (≈ 0.047 µM) | 0.0088 (≈ 0.0106 µM) | 0.11 (≈ 0.133 µM)
CCCCCCCCCCCCCC(=O)N[C@@H](CCCN)C(=O)N(C)[C@@H]1C(=O)N[C@@H](C)C(=O)N[C@H](C(=O)O)Cc2ccc(OCCN)c(c2)-c2cc1ccc2OCCN [Compound 303] | – | – | – | 0.023 (≈ 0.0279 µM) | 0.023 (≈ 0.0279 µM) | 0.13 (≈ 0.158 µM)
CCCCCCCCCCCC(=O)N[C@@H](CCN)C(=O)N(C)[C@@H]1C(=O)N[C@@H](C)C(=O)N[C@H](C(=O)O)Cc2ccc(OCCN)c(c2)-c2cc1ccc2OCCN [Compound 304] | – | – | – | 0.13 (≈ 0.166 µM) | 0.047 (≈ 0.0601 µM) | 0.5 (≈ 0.639 µM)
CCCCCCCCCCC(=O)N[C@@H](CCN)C(=O)N(C)[C@@H]1C(=O)N[C@@H](C)C(=O)N[C@H](C(=O)O)Cc2ccc(OCCN)c(c2)-c2cc1ccc2OCCN [Compound 305] | – | – | – | 0.38 (≈ 0.495 µM) | 0.13 (≈ 0.169 µM) | 1 (≈ 1.3 µM)
CCCCCCCCCC(=O)N[C@@H](CCN)C(=O)N(C)[C@@H]1C(=O)N[C@@H](C)C(=O)N[C@H](C(=O)O)Cc2ccc(OCCN)c(c2)-c2cc1ccc2OCCN [Compound 306] | – | – | – | 1 (≈ 1.33 µM) | 0.25 (≈ 0.332 µM) | 3 (≈ 3.98 µM)
CCCCCCCCC(=O)N[C@@H](CCN)C(=O)N(C)[C@@H]1C(=O)N[C@@H](C)C(=O)N[C@H](C(=O)O)Cc2ccc(OCCN)c(c2)-c2cc1ccc2OCCN [Compound 307] | – | – | – | 3 (≈ 4.05 µM) | 1 (≈ 1.35 µM) | 4 (≈ 5.41 µM)
CCCCCCCCCCCCCC(=O)N[C@@H](CC)C(=O)N(C)[C@@H]1C(=O)N[C@@H](C)C(=O)N[C@H](C(=O)O)Cc2ccc(OCCN)c(c2)-c2cc1ccc2OCCN [Compound 308] | – | – | – | 0.38 (≈ 0.478 µM) | 0.094 (≈ 0.118 µM) | 1 (≈ 1.26 µM)
CCCCCCCCc1ccc(C(=O)N[C@@H](CO)C(=O)N(C)[C@@H]2C(=O)N[C@@H](C)C(=O)N[C@H](C(=O)O)Cc3ccc(OCCN)c(c3)-c3cc2ccc3OCCN)c(C)c1 [Compound 309] | – | – | – | 0.25 (≈ 0.306 µM) | 0.031 (≈ 0.0379 µM) | 0.5 (≈ 0.612 µM)
C[C@H](NC(=O)[C@@H]1Cc2ccc(OCCN)c(c2)-c2cc(ccc2OCCN)[C@H](N(C)C(=O)[C@H](CCCCN)NC(=O)c2ccc(-c3ccc(Cl)cc3)cc2)C(=O)N[C@@H](C)C(=O)N1)B1O[C@@H]2C[C@@H]3C[C@@H](C3(C)C)[C@]2(C)O1 [Compound 310] | – | 0.19 (≈ 0.181 µM) | – | 0.094 (≈ 0.0897 µM) | – | 0.5 (≈ 0.477 µM)
C[C@@H]1NC(=O)[C@@H](N(C)C(=O)[C@H](CCCCN)NC(=O)c2ccc(-c3ccc(Cl)cc3)cc2)c2ccc(OCCN)c(c2)-c2cc(ccc2OCCN)C[C@@H](C(=O)NCB(O)O)NC1=O [Compound 311] | – | 0.19 (≈ 0.211 µM) | – | 0.13 (≈ 0.145 µM) | – | 1.5 (≈ 1.67 µM)

From US10392422B2, “Macrocyclic broad spectrum antibiotics” (priority 2014, dated 2019)
